Test results as given in the supplement of paper PMC10307832.

Key:
Assay in all cases: relative viability (nuclei count vs DMSO), 5 days (fraction); higher = more cells survive
Omipalisib + Lapatinib = compound: COc1ncc(-c2ccc3nccc(-c4ccnnc4)c3c2)cc1NS(=O)(=O)c1ccc(F)cc1F [Omipalisib] + CS(=O)(=O)CCNCc1ccc(-c2ccc3ncnc(Nc4ccc(OCc5cccc(F)c5)c(Cl)c4)c3c2)o1 [Lapatinib] (partner 2 µM)
In short: (§1)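 Values are medians from duplicate plates. Each reflects relative viability, defined as the nuclei count of treated wells over that of vehicle wells. Lung cancer cell lines in 1536-well plates were pin-tool dosed one day after seeding with one drug alone or with a fixed anchor-drug dose plus five library-drug doses (not always all listed) in √10 steps, then fixed, stained and imaged at 4× after 5 days.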

Omipalisib + OSI-027 = compound: COc1ncc(-c2ccc3nccc(-c4ccnnc4)c3c2)cc1NS(=O)(=O)c1ccc(F)cc1F [Omipalisib] + COc1cccc2cc(-c3nc([C@H]4CC[C@H](C(=O)O)CC4)n4ncnc(N)c34)[nH]c12 [OSI-027] (partner 0.5 µM)
In short: as §1

Omipalisib + Trametinib = compound: COc1ncc(-c2ccc3nccc(-c4ccnnc4)c3c2)cc1NS(=O)(=O)c1ccc(F)cc1F [Omipalisib] + CC(=O)Nc1cccc(-n2c(=O)n(C3CC3)c(=O)c3c(Nc4ccc(I)cc4F)n(C)c(=O)c(C)c32)c1 [Trametinib] (partner 0.02 µM)
In short: as §1

Omipalisib + Vorinostat = compound: COc1ncc(-c2ccc3nccc(-c4ccnnc4)c3c2)cc1NS(=O)(=O)c1ccc(F)cc1F [Omipalisib] + O=C(CCCCCCC(=O)Nc1ccccc1)NO [Vorinostat] (partner 1 µM)
In short: as §1

Omipalisib + Decitabine = compound: COc1ncc(-c2ccc3nccc(-c4ccnnc4)c3c2)cc1NS(=O)(=O)c1ccc(F)cc1F [Omipalisib] + Nc1ncn([C@H]2C[C@H](O)[C@@H](CO)O2)c(=O)n1 [Decitabine] (partner 2 µM)
In short: as §1

Omipalisib + Dasatinib = compound: COc1ncc(-c2ccc3nccc(-c4ccnnc4)c3c2)cc1NS(=O)(=O)c1ccc(F)cc1F [Omipalisib] + Cc1nc(Nc2ncc(C(=O)Nc3c(C)cccc3Cl)s2)cc(N2CCN(CCO)CC2)n1 [Dasatinib] (partner 0.075 µM)
In short: as §1

| Cell Line | relative viability (Omipalisib + Lapatinib; first compound 0.0003 µM) | relative viability (Omipalisib + Lapatinib; first compound 0.003 µM) | relative viability (Omipalisib + Lapatinib; first compound 0.03 µM) | relative viability (Omipalisib + OSI-027; first compound 0.0003 µM) | relative viability (Omipalisib + OSI-027; first compound 0.003 µM) | relative viability (Omipalisib + OSI-027; first compound 0.03 µM) | relative viability (Omipalisib + Trametinib; first compound 0.0003 µM) | relative viability (Omipalisib + Trametinib; first compound 0.003 µM) | relative viability (Omipalisib + Trametinib; first compound 0.03 µM) | relative viability (Omipalisib + Vorinostat; first compound 0.0003 µM) | relative viability (Omipalisib + Vorinostat; first compound 0.003 µM) | relative viability (Omipalisib + Vorinostat; first compound 0.03 µM) | relative viability (Omipalisib + Decitabine; first compound 0.0003 µM) | relative viability (Omipalisib + Decitabine; first compound 0.003 µM) | relative viability (Omipalisib + Decitabine; first compound 0.03 µM) | relative viability (Omipalisib + Dasatinib; first compound 0.0003 µM) | relative viability (Omipalisib + Dasatinib; first compound 0.003 µM) | relative viability (Omipalisib + Dasatinib; first compound 0.03 µM) |
| --- | --- | --- | --- | --- | --- | --- | --- | --- | --- | --- | --- | --- | --- | --- | --- | --- | --- | --- |
| 201T | 1.02 | 0.935 | 0.936 | 0.786 | 0.494 | 0.398 | 0.681 | 0.658 | 0.465 | 1.01 | 0.855 | 0.453 | 0.816 | 0.809 | 0.53 | 0.582 | 0.413 | 0.323 |
| A-427 | 1.08 | 0.897 | 1.05 | 0.48 | 0.281 | 0.377 | 0.665 | 0.38 | 0.358 | 0.885 | 0.877 | 0.867 | 0.538 | 0.443 | 0.417 | 0.686 | 0.434 | 0.625 |
| ABC-1 | 0.994 | 1.02 | 0.769 | 0.518 | 0.382 | 0.283 |  |  |  | 1.04 | 0.76 | 0.692 | 1.05 | 0.99 | 0.742 | 0.424 | 0.499 | 0.35 |
| BEN | 0.566 | 0.444 | 0.364 | 0.311 | 0.271 | 0.291 | 0.828 | 0.671 | 0.602 | 0.502 | 0.498 | 0.452 | 0.695 | 0.612 | 0.606 | 0.277 | 0.3 | 0.307 |
| CAL-12T | 0.787 | 0.496 | 0.475 | 0.753 | 0.404 | 0.232 | 0.299 | 0.205 | 0.173 | 0.666 | 0.386 | 0.34 |  |  |  | 0.53 | 0.241 | 0.0952 |
| COR-L23 | 1.01 | 0.893 | 0.517 | 0.786 | 0.59 | 0.483 | 0.496 | 0.342 | 0.249 | 0.404 | 0.377 | 0.242 | 0.433 | 0.355 | 0.296 | 0.487 | 0.323 | 0.239 |
| COR-L 105 | 0.37 | 0.334 | 0.313 | 0.767 | 0.549 | 0.328 | 0.469 | 0.423 | 0.414 | 0.853 | 0.809 | 0.568 | 0.593 | 0.589 | 0.556 | 0.301 | 0.287 | 0.186 |
| ChaGo-K-1 |  |  |  | 0.557 | 0.374 | 0.421 | 0.818 | 0.747 | 0.666 | 0.732 | 0.619 | 0.675 | 0.494 | 0.448 | 0.47 | 0.657 | 0.583 | 0.473 |
| EKVX | 0.198 | 0.17 | 0.131 | 0.612 | 0.371 | 0.256 | 0.42 | 0.347 | 0.152 | 0.709 | 0.588 | 0.256 | 0.305 | 0.289 | 0.238 | 0.398 | 0.302 | 0.175 |
| EMC-BAC-2 | 0.726 | 0.611 | 0.608 | 0.347 | 0.266 | 0.239 | 0.569 | 0.571 | 0.436 | 0.382 | 0.317 | 0.298 | 0.664 | 0.663 | 0.654 | 0.261 | 0.231 | 0.21 |
| EPLC-272H | 0.908 | 0.535 | 0.562 | 0.286 | 0.29 | 0.217 | 0.275 | 0.256 | 0.14 | 0.586 | 0.295 | 0.129 | 0.346 | 0.269 | 0.172 | 0.387 | 0.239 | 0.113 |
| HCC-44 | 1.09 | 0.96 | 0.432 | 0.524 | 0.344 | 0.338 | 0.983 | 0.921 | 0.468 | 1.12 | 1.18 | 0.559 | 0.95 | 0.914 | 0.787 |  |  |  |
| LCLC-103H |  |  |  | 0.436 | 0.354 | 0.313 | 0.602 | 0.524 | 0.401 | 0.848 | 0.554 | 0.43 | 0.69 | 0.639 | 0.4 | 0.467 | 0.326 | 0.167 |
| NCI-H441 |  |  |  | 0.642 | 0.35 | 0.26 | 0.474 | 0.232 | 0.184 | 0.783 | 0.526 | 0.399 | 0.24 | 0.206 | 0.227 | 0.494 | 0.37 | 0.339 |
| NCI-H1792 | 0.864 | 0.88 | 0.301 | 0.653 | 0.404 | 0.224 | 0.42 | 0.169 | 0.116 |  |  |  | 0.428 | 0.37 | 0.101 | 0.566 | 0.521 | 0.21 |
| NCI-H2228 | 0.993 | 0.697 | 0.291 | 0.506 | 0.19 | 0.139 | 0.505 | 0.187 | 0.173 | 0.75 | 0.498 | 0.162 |  |  |  | 0.43 | 0.275 | 0.133 |
| NCI-H2342 |  |  |  | 0.569 | 0.516 | 0.467 | 0.732 | 0.583 | 0.449 | 0.678 | 0.536 | 0.499 | 0.589 | 0.479 | 0.408 | 0.298 | 0.294 | 0.243 |
| SW 900 |  |  |  | 0.573 | 0.495 | 0.306 | 0.625 | 0.915 | 0.396 | 0.523 | 0.484 | 0.316 | 0.386 | 0.344 | 0.392 | 0.568 | 0.293 | 0.211 |
